# From BindingDB's records for doi:10.1111/cbdd.12746 (Ahi Evran University, 2016)
# Biological target: Serum paraoxonase/arylesterase 1 (Homo sapiens, UniProt P27169)
# Experiment: Paraoxonase Activity Assay
# Details: pH 10.5
# Experimental: Paraoxonase enzyme activity was determined at 25 °C with paraoxon (1 mM) in 50 mM glycine-NaOH (pH 10.5) containing 1 mM CaCl2. The enzyme assay was based on the estimation of p-nitrophenol at 412 nm. Assays were performed using a spectrophotometer (CHEBIOS UV-VIS, Fullerton, CA). The molar extinction coefficient of paranitrophenol (Ɛ = 18 290/M/cm at pH 10.5) is used for thecalculation of enzyme activity. One enzyme unit was defined as the amount of enzyme that catalyzes the hydrolysis of 1 µmol of paraoxon at 25 °C (J. Chromatogr. B. 2006, 836:15-21).
# Sequence of Serum paraoxonase/arylesterase 1 (P27169 whole entry): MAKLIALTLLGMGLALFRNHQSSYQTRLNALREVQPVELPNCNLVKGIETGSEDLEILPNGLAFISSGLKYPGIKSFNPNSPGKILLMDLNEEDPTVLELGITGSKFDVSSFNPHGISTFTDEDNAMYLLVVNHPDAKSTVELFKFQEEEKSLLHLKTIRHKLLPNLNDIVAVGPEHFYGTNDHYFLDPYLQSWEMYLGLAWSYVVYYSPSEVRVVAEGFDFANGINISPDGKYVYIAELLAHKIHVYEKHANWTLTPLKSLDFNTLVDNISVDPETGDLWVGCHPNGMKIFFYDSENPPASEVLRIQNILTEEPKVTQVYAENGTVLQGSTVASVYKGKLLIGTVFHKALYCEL
Compound,IC50 [µM],Ki [µM]
"O=P1(NCCCl)OCCCN1CCCl (stereo not drawn) [N,3-bis(2-chloroethyl)-2-oxo-1,3,2-oxazaphosphinan-2-amine]",23300,8970
CC(=O)O[C@@]12CO[C@@H]1C[C@H](O)[C@@]1(C)C(=O)[C@H](O)C3=C(C)[C@@H](OC(=O)[C@H](O)[C@@H](NC(=O)OC(C)(C)C)c4ccccc4)C[C@@](O)([C@@H](OC(=O)c4ccccc4)[C@H]21)C3(C)C [CID148124],665,291
CC(=O)O[C@H]1C(=O)[C@@]2(C)[C@H]([C@H](OC(=O)c3ccccc3)[C@]3(O)C[C@H](OC(=O)[C@H](O)[C@@H](NC(=O)c4ccccc4)c4ccccc4)C(C)=C1C3(C)C)[C@]1(OC(C)=O)CO[C@@H]1C[C@@H]2O,42,16.5
"COc1cc([C@@H]2c3cc4c(cc3[C@@H](O[C@@H]3O[C@@H]5CO[C@@H](C)O[C@H]5[C@H](O)[C@H]3O)[C@H]3COC(=O)[C@H]23)OCO4)cc(OC)c1O [4'-Demethylepipodophyllotoxin 9-(4,6-O-(R)-ethylidene-beta-D-glucopyranoside)]",226,131
